Measured values published in patent publication US11452708B2, “Discovery of potent [alpha]-glucosidase inhibitors from Heterophragma adenophyllum” (KING ABDULAZIZ UNIVERSITY, priority 2021, dated 2022).
Values joined by “and” are separate entries in the source; they are usually repeats but may differ in a detail not shown here. Identical values can stand only once. Like-named read-outs stand apart in the source and are kept apart here.

Target: α-glucosidase (E.C.3.2.1.20) (Saccharomyces cerevisiae, UniProt P53341)
Experiment: α-glucosidase inhibitory activity (p-nitrophenyl-α-d-glucopyranoside substrate, absorbance at 400 nm)
Format: biochemical
Settings: in vitro; for IC50: 0.1 M phosphate buffer, pH 6.8, 37° C., standard acarbose, unit inferred
Protocol: . The substrate (0.7 Mm, p-nitrophenyl-α-d-glucopyranoside) was then mixed in and the difference in absorbance at 400 nm was recorded using a spectrophotometer for 30 minutes. The tested extracts and compound 1 were substituted with DMSO-d6 (7.5%) in the control. The standard drug used in this experiment was acarbose. The percentage activity was calculated by using the following formula.

[1] = read-out: IC50, α-glucosidase inhibition

Sequence of α-glucosidase (E.C.3.2.1.20) (P53341 whole entry): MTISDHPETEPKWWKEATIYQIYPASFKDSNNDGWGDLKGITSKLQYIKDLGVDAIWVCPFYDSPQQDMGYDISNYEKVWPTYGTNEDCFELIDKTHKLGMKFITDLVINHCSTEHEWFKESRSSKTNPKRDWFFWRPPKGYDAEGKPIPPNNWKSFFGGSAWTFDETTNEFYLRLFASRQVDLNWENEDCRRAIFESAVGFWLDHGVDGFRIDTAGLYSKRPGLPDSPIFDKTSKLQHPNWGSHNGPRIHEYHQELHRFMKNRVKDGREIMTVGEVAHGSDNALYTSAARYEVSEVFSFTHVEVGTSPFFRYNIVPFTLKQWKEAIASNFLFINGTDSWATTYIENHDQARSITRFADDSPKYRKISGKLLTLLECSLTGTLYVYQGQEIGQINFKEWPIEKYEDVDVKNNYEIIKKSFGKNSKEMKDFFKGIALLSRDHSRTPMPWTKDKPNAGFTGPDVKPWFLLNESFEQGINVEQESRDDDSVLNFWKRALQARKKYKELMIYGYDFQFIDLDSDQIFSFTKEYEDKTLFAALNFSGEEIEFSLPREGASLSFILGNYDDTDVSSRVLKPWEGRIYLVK

Row | Compound | IC50 [1] | other results
1 | CC(C)=CCC1=C(O)C(=O)c2ccccc2C1=O [Compound 1, lapachol] | 33.1 ± 2.41 µM | –
2 | COC(=O)C1(O)c2ccccc2C(=O)C1(O)CC=C(C)C (stereo not shown) [Compound 3, Methyl 1,2-dihydroxy-2-(3-methylbut-2-enyl)-3-oxo-2,3-dihydroxo-1H-indene-1-carboxylate] | – | IC50 (IC50, α-glucosidase inhibition): 78.3 µM and 117 µM
3 | CC1(C)CCC2=C(O1)C(=O)c1ccccc1C2=O [Compound 4, α-lapachone] | 117 µM and 78.3 µM | –
4 | peshawaraquinone [Compound 2] | – | α-glucosidase inhibitory activity (in words) (comparison among the tested compounds 1-4): least active
